According to patent US20250059205A1, “Heterocyclic Compounds and Methods of Use” (AMGEN INC., priority 2021, published 2025):
Where two headings read alike, the source gives them in different places.

Legend:
[1] = biological target: His-tagged KRAS G12D protein (Homo sapiens, UniProt P01116, G12D); assay: KRAS G12D TR-FRET Assay; assay type: binding
[2] = biological target: GDP-bound KRAS protein (aa 1-169), containing both G12D and C118A amino acid substitutions (Homo sapiens, UniProt P01116, C118A/G12D); assay: KRAS G12D Coupled Nucleotide Exchange Assay; assay type: biochemical; conditions: 2 h compound pre-incubation
GDP-bound KRAS protein (aa 1-169), containing both G12D and C118A amino acid substitutions, sequence (P01116 1-169 isoform P01116-2 G12D/C118A): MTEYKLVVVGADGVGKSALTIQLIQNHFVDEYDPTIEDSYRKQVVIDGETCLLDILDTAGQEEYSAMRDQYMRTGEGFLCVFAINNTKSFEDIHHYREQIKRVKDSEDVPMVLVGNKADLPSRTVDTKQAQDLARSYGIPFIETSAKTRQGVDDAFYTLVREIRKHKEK
Method: Following compound pre-incubation, purified SOS protein (aa 564-1049) and GTP (Roche 10106399001) were added to the assay wells and incubated for an additional 30 min. […] The assay plates were then read on a PerkinElmer EnVision Multilabel Reader, using AlphaScreen® technology, and data were analyzed using a 4-parameter logistic model to calculate IC50 values.

[3] = test system: Phosphorylation of ERK1/2 in A-427 cells; assay: Phospho-ERK1/2 MSD Assay (A-427 cells); assay type: cell-based; conditions: 2 h treatment, read-out: p-ERK (A427 cells) IC50
How it was run: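 ERK1/2 phosphorylation measured by Meso Scale whole-cell lysate assay after A-427 cells were exposed to a titration of compound for 2 h at 37 °C.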

[4] = test system: Phosphorylation of ERK1/2 in AsPC-1 cells; assay: Phospho-ERK1/2 MSD Assay (AsPC-1 cells); assay type: cell-based; conditions: 2 hours treatment, read-out: p-ERK (AsPC-1 cells) IC50
How it was run: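 Read-out: MSD electrochemiluminescent detection of phosphorylated ERK1/2 in whole-cell lysates, fitted to a 4-parameter logistic curve for IC50. Prior to lysis, AsPC-1 cells (25,000 per well) received a 2 h compound dose-response at 37 °C.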

His-tagged KRAS G12D protein, sequence (P01116 1-188 isoform P01116-2 G12D): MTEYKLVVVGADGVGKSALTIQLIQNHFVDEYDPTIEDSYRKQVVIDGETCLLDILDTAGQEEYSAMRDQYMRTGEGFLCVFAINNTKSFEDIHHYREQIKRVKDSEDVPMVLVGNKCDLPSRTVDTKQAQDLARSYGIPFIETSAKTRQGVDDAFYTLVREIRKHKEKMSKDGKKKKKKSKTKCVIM

Structure (SMILES)	IC50 [1] [nM]	Avg 2 h Coupled Exchange IC50 [2] [nM]	IC50 ([3]; Homo sapiens, A-427, 2 h) [nM]	IC50 ([4]; Homo sapiens, ASPC1, 2 h) [nM]	IC50 ([2]; read-out: Avg 2 h Coupled Exchange IC50) [nM]	IC50 [3] [nM]	IC50 [4] [nM]
Oc1cc(-c2c(Cl)cc3c(N4C[C@H]5CC[C@@H](C4)N5)nc(OC[C@]45CCCN4C[C@H](F)C5)nc3c2F)c2ccccc2c1 [Example 51, 4-(4-((1R,5S)-3,8-diazabicyclo[3.2. 1]octan-3-yl)-6-chloro-8-fluoro-2-(((2R,7aR)-2-fluorotetrahydro-1H-pyrrolizin-7a(5H)-yl)methoxy)quinazolin-7-yl)naphthalen-2-ol]	3	1	136	185			
CCc1c(F)ccc2cc(O)cc(-c3cc(C)c4c(N5C[C@H]6CC[C@@H](C5)N6)nc(OC[C@@]56CCCN5C[C@H](F)C6)nc4c3F)c12 [Example 230]	4				1	33	68
CN1C[C@H](F)C[C@H]1COc1nc(N2C[C@H]3C[C@@H](C2)N3)c2ccc(-c3cc(O)cc4ccccc34)c(F)c2n1 [Example 7, 4-(4-((1R,5S)-3,6-diazabicyclo[3.1. 1]heptan-3-yl)-8-fluoro-2-(((2S,4R)-4-fluoro-1-methylpyrrolidin-2-yl)methoxy)quinazolin-7-yl)naphthalen-2-ol]	75	35	3510	3300			
Cc1cccc(-c2c(F)cc3c(N4C[C@H]5CC[C@@H](C4)N5)nc(OC[C@@]45CCCN4C[C@H](F)C5)nc3c2F)c1C(F)(F)F [Example 149, 4-((1R,5S)-3,8-diazabicyclo[3.2.1]octan-3-yl)-6,8-difluoro-2-(((2R,7aS)-2-fluorotetrahydro-1H-pyrrolizin-7a(5H)-yl)methoxy)-7-(3-methyl-2-(trifluoromethyl)phenyl)quinazoline]	5	2	939	680			
